From PubChem BioAssay AID330 (DTP/NCI, 2004)
Values joined by “and” are separate entries in the source; they are usually repeats but may differ in a detail not shown here. Identical values can stand only once. Inconclusive results and toxic doses are left out. The calls were made as follows: active = survival T/C of 150% or more; inactive = T/C below 125% in these data.

System: P388 leukemia ip, CD2F1 mice, survival T/C
Assay: NCI In Vivo Anticancer Drug Screen. Data for tumor model P388 Leukemia (intraperitoneal) in CD2F1 (CDF1) mice
Details: endpoint: median survival time, higher = longer survival
Summary of the method: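 Mice carrying the transplanted tumor received test compound or vehicle. Survival was recorded in each group, and the value is the treated-group measurement divided by that of the vehicle-treated control group.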

[1] = dose: 50.0 mg/kg/injection, schedule: Q01DX005 (ip), vehicle: saline with Tween-80
[2] = dose: 100.0 mg/kg/injection, schedule: Q01DX005 (ip), vehicle: saline with Tween-80
[3] = dose: 200.0 mg/kg/injection, schedule: Q01DX005 (ip), vehicle: saline with Tween-80
[4] = dose: 50.0 mg/kg/injection, schedule: Q01DX009 (ip), vehicle: Klucel (hydroxypropylcellulose) (HPC)
[5] = dose: 100.0 mg/kg/injection, schedule: Q01DX009 (ip), vehicle: Klucel (hydroxypropylcellulose) (HPC)
[6] = dose: 200.0 mg/kg/injection, schedule: Q01DX009 (ip), vehicle: Klucel (hydroxypropylcellulose) (HPC)
[7] = dose: 25.0 mg/kg/injection, schedule: Q01DX009 (ip), vehicle: saline
[8] = dose: 12.5 mg/kg/injection, schedule: Q01DX005 (ip), vehicle: saline with Tween-80
[9] = dose: 60.0 mg/kg/injection, schedule: Q01DX005 (ip), vehicle: saline with Tween-80
[10] = dose: 120.0 mg/kg/injection, schedule: Q01DX005 (ip), vehicle: saline with Tween-80
[11] = dose: 240.0 mg/kg/injection, schedule: Q01DX005 (ip), vehicle: saline with Tween-80

Measured: T/C

Nc1nc(N)c2[nH]c(=O)[nH]c2n1
inactive: [1] 103 % of control | [2] 103 % of control | [3] 118 % of control

CC1Cc2ccc3c(c2C(c2ccc4c(c2)OCO4)C1C)OCO3 (configuration not stated)
inactive: dose: 60.0 mg/kg/injection, schedule: Q01DX005 (ip), vehicle: Klucel + Tween-80 103 % of control | dose: 120.0 mg/kg/injection, schedule: Q01DX005 (ip), vehicle: Klucel + Tween-80 97 % of control | dose: 240.0 mg/kg/injection, schedule: Q01DX005 (ip), vehicle: Klucel + Tween-80 86 % of control

CC1(C)CC(NC(=O)c2ccccc2)C(=O)O1 (configuration not stated)
inactive: dose: 50.0 mg/kg/injection, schedule: Q01DX009 (ip), vehicle: saline with Tween-80 99 % of control | dose: 100.0 mg/kg/injection, schedule: Q01DX009 (ip), vehicle: saline with Tween-80 100 % of control | dose: 200.0 mg/kg/injection, schedule: Q01DX009 (ip), vehicle: saline with Tween-80 98 % of control

Cc1ccc(C2N(CCN3C(=O)CS(=O)(=O)C3c3ccc(C)s3)C(=O)CS2(=O)=O)s1 (configuration not stated)
inactive: dose: 100.0 mg/kg/injection, schedule: Q01DX001 (ip), vehicle: saline with Tween-80 101 % of control | dose: 100.0 mg/kg/injection, schedule: Q04DX002 (ip), vehicle: saline with Tween-80 97 % of control | dose: 200.0 mg/kg/injection, schedule: Q01DX001 (ip), vehicle: saline with Tween-80 94 % of control | dose: 200.0 mg/kg/injection, schedule: Q04DX002 (ip), vehicle: saline with Tween-80 87 % of control | dose: 400.0 mg/kg/injection, schedule: Q01DX001 (ip), vehicle: saline with Tween-80 91 % of control

CC(=O)NNC(=O)Nc1ccc(Cl)c(Cl)c1
inactive: [4] 108 % of control | [5] 103 % of control | [6] 91 % of control

CC(C)(C)OC(=O)NNCC(=O)OCc1ccccc1
inactive: dose: 12.5 mg/kg/injection, schedule: Q01DX009 (ip), vehicle: other 96 % of control | dose: 25.0 mg/kg/injection, schedule: Q01DX009 (ip), vehicle: other 103 % of control | dose: 50.0 mg/kg/injection, schedule: Q01DX009 (ip), vehicle: other 111 % of control | dose: 100.0 mg/kg/injection, schedule: Q01DX009 (ip), vehicle: other 101 % of control | dose: 200.0 mg/kg/injection, schedule: Q01DX009 (ip), vehicle: other 99 % of control

CCC/C=C/C1SCC(=O)N1c1nncs1 (configuration not stated)
inactive: [1] 102 % of control | [2] 103 % of control | [3] 117 % of control

COc1ccc(C(c2cc(C(C)(C)C)cc(C(C)(C)C)c2O)N(C)C)cc1 (configuration not stated)
inactive: dose: 50.0 mg/kg/injection, schedule: Q01DX005 (ip), vehicle: distilled water + alcohol 103 % of control | dose: 100.0 mg/kg/injection, schedule: Q01DX005 (ip), vehicle: distilled water + alcohol 103 % of control | dose: 200.0 mg/kg/injection, schedule: Q01DX005 (ip), vehicle: distilled water + alcohol 105 % of control

Cc1cn(C2CC3[O][Sn]([c]4ccccc4)([c]4ccccc4)[O]CC3O2)c(=O)[nH]c1=O (configuration not stated)
inactive: dose: 12.5 mg/kg/injection, schedule: Q01DX009 (ip), vehicle: saline 124 % of control | [7] 100 % of control

CC1=C(CC/C(C)=C/CCC2=CCC(C3=CC(=O)OC3O)OC2O)C(C)(C)CCC1 (configuration not stated)
inactive: dose: 1.0 mg/kg/injection, schedule: Q01DX009 (ip), vehicle: Klucel (hydroxypropylcellulose) (HPC) 116 % of control | dose: 2.0 mg/kg/injection, schedule: Q01DX009 (ip), vehicle: Klucel (hydroxypropylcellulose) (HPC) 111 % of control | dose: 4.0 mg/kg/injection, schedule: Q01DX009 (ip), vehicle: Klucel (hydroxypropylcellulose) (HPC) 117 % of control | dose: 8.0 mg/kg/injection, schedule: Q01DX009 (ip), vehicle: Klucel (hydroxypropylcellulose) (HPC) 100 % of control | dose: 16.0 mg/kg/injection, schedule: Q01DX009 (ip), vehicle: Klucel (hydroxypropylcellulose) (HPC) 117 % of control

CC1=N/C(=C\c2ccccc2O)C(=O)O1
inactive: dose: 50.0 mg/kg/injection, schedule: Q01DX005 (ip), vehicle: Klucel (hydroxypropylcellulose) (HPC) 104 % of control | dose: 100.0 mg/kg/injection, schedule: Q01DX005 (ip), vehicle: Klucel (hydroxypropylcellulose) (HPC) 98 % of control | dose: 200.0 mg/kg/injection, schedule: Q01DX005 (ip), vehicle: Klucel (hydroxypropylcellulose) (HPC) 98 % of control

Cc1c(C(N)=O)c2ccccc2c2ccccc12
inactive: [8] 109 % of control | dose: 25.0 mg/kg/injection, schedule: Q01DX005 (ip), vehicle: saline with Tween-80 95 % of control | [1] 93 % of control and 95 % of control

NC(=S)N/N=C1\C(=O)NC(=O)C1c1ccccc1 (configuration not stated)
inactive: [1] 115 % of control | [2] 105 % of control

c1ccc(C2=NC3CCCC[C@H]3O2)cc1 (some centres not stated)
inactive: dose: 30.0 mg/kg/injection, schedule: Q01DX005 (ip), vehicle: saline with Tween-80 108 % of control | [9] 101 % of control and 96 % of control | [10] 105 % of control | [11] 100 % of control

COC(=O)c1ncn(C2CCCCC2)c1N
inactive: dose: 6.25 mg/kg/injection, schedule: Q01DX005 (ip), vehicle: saline with Tween-80 99 % of control | [8] 101 % of control

CCN(CC)CCNc1cc(OC)c(C)c2cccnc12
inactive: dose: 50.0 mg/kg/injection, schedule: Q01DX005 (ip), vehicle: saline 104 % of control | dose: 100.0 mg/kg/injection, schedule: Q01DX005 (ip), vehicle: saline 109 % of control

CC(C)(C)c1cc(-c2c3nc(c(-c4cc(C(C)(C)C)c(O)c(C(C)(C)C)c4)c4ccc([nH]4)c(-c4cc(C(C)(C)C)c(O)c(C(C)(C)C)c4)c4nc(c(-c5cc(C(C)(C)C)c(O)c(C(C)(C)C)c5)c5ccc2[nH]5)C=C4)C=C3)cc(C(C)(C)C)c1O
inactive: [9] 90 % of control | [10] 88 % of control | [11] 88 % of control

O=c1cc(-c2ccccc2)c(N=Nc2ccccc2)c(S)n1-c1ccccc1
inactive: [1] 87 % of control | [2] 88 % of control | [3] 90 % of control

CSc1nc(N)c(C(=O)N2CCCCC2)s1
inactive: [4] 100 % of control | [5] 100 % of control | [6] 89 % of control

COc1ccc(C(=O)Cc2nc3nnc(N)n3nc2CC(=O)c2ccc(OC)cc2)cc1
inactive: dose: 60.0 mg/kg/injection, schedule: Q01DX005 (ip), vehicle: saline 96 % of control | dose: 120.0 mg/kg/injection, schedule: Q01DX005 (ip), vehicle: saline 100 % of control | dose: 240.0 mg/kg/injection, schedule: Q01DX005 (ip), vehicle: saline 100 % of control

COc1nc2n[nH]nc2c(=O)n1C
inactive: [9] 104 % of control | [10] 102 % of control | [11] 101 % of control

Cn1cc(CCc2cc[n+](CCC[N+](C)(C)C)cc2)c2ccccc21
inactive: dose: 1.25 mg/kg/injection, schedule: Q01DX009 (ip), vehicle: saline 101 % of control | dose: 2.5 mg/kg/injection, schedule: Q01DX009 (ip), vehicle: saline 105 % of control | dose: 5.0 mg/kg/injection, schedule: Q01DX009 (ip), vehicle: saline 109 % of control | dose: 10.0 mg/kg/injection, schedule: Q01DX009 (ip), vehicle: saline 108 % of control

CCN(CC)Cc1c(C)nc2cc(N(C)C)ccc2c1Cl
inactive: [9] 103 % of control

Cc1ccc(C(C)C)c2c1CN(CCCN1COc3c(C(C)C)ccc(C)c3C1)CO2
inactive: [9] 91 % of control | [10] 86 % of control

O=C1CCSC(=S)N1c1ccc(Cl)c(C(F)(F)F)c1
inactive: [7] 101 % of control and 91 % of control | dose: 50.0 mg/kg/injection, schedule: Q01DX009 (ip), vehicle: saline 100 % of control and 106 % of control and 107 % of control | dose: 100.0 mg/kg/injection, schedule: Q01DX009 (ip), vehicle: saline 110 % of control and 118 % of control and 98 % of control | dose: 200.0 mg/kg/injection, schedule: Q01DX009 (ip), vehicle: saline 100 % of control and 119 % of control
